# Where two headings read alike, the source gives them in different places.
# Experiments:
# [1] = Pharmacokinetic study, intravenous administration of aqueous solution of Working Example 1; assay type: in vivo, Sprague-Daweley IGS rats; settings: i.v.; for C0 / AUC(0-t): Sprague-Dawley IGS, rat, blood, iv, average of three; for AUC(0-t): read-out: AUC0-24
# Description: The aqueous solution obtained in Working Example 1 was filtered and sterilized with Millex (registered trademark)-GV (0.22 μm; available from Millipore Japan Corporation/Merck Millipore Corporation) and intravenously administered to female and male Sprague-Daweley IGS rats (6 weeks old) to investigate the pharmacokinetics of Compound (I).
# As groups of animals, female and male Sprague-Daweley IGS rats (available from Charles River Laboratories Japan, Inc.) were used. The rats were 6 weeks old. The male rats had body weights of 166 to 189 g, and the female rats had body weights of 123 to 145 g.
# The rats were quarantined and acclimated in a SPF (specific pathogen free) laboratory for animal experimentations for seven days, and their states of health were simultaneously observed. Each of the rats was kept in a sterilized stainless cage. In the SPF laboratory for animal experimentations, the temperature was maintained at 20.6 to 22.5° C., and the relative humidity was maintained at 44 to 60%. In the SPF laboratory for animal experimentations, ventilation was provided fifteen times per hour. Regarding illumination in the SPF laboratory for animal experimentations, a bright state and a dark state were switched every 12 hours.
# As foods for rats, a standard dry food in stick-shape (whose components were already analyzed) was used. As drinking water, tap water which was confirmed to be within a range of the reference value was used, and the rats were allowed to freely drink it.
# The above-mentioned quarantined rats were randomly divided into the following three groups (four female rats and four male rats per group) by weight.
# (1) Group 1: the aqueous solution obtained in Working Example 1 was administered in a dose of 1 mL/kg.
# (2) Group 2: the aqueous solution obtained in Working Example 1 was administered in a dose of 2 mL/kg.
# (3) Group 3: the aqueous solution obtained in Working Example 1 was administered in a dose of 3 mL/kg.
# After the quarantined rats fasted overnight (for about 16 hours), the aqueous solution obtained in Working Example 1 was intravenously administered. Blood was collected 0.083 hours, 0.25 hours, 0.5 hours, 1 hour, 4 hours, and 24 hours after the administration, and the concentration of Compound (I) in the blood was measured. The maximum blood concentration, C0 (ng/mL), just after the composition for injection was intravenously administered, and the area under the blood concentration-time curve of Compound (I) over 0 to 24 hours after the administration, AUC0-24 (ng·h/mL), were calculated from the measured concentrations of Compound (I) in the blood at the collection times.
# [2] = cited from earlier work
# [3] = female rats, aqueous solution of Working Example 1, dose of Compound (I) 1 mg/kg (Group 1)
# [4] = female rats, aqueous solution of Working Example 1, dose of Compound (I) 2 mg/kg (Group 2)
# [5] = female rats, aqueous solution of Working Example 1, dose of Compound (I) 3 mg/kg (Group 3)
# [6] = male rats, aqueous solution of Working Example 1, dose of Compound (I) 1 mg/kg (Group 1)
# [7] = male rats, aqueous solution of Working Example 1, dose of Compound (I) 2 mg/kg (Group 2)
# [8] = male rats, aqueous solution of Working Example 1, dose of Compound (I) 3 mg/kg (Group 3)
smiles,measurement,setting,value
"O=C(Nc1cc(C(F)(F)F)cc(C(F)(F)F)c1)c1cc(Cl)ccc1O [Compound (I), N-[3,5-bis(trifluoromethyl)phenyl]-5-chloro-2-hydroxybenzamide]",C0,[1]; [3],2150 ng/mL
same,AUC(0-t),[1]; [3],388 ng·h/mL
same,C0,[1]; [4],2820 ng/mL
same,AUC(0-t),[1]; [4],540 ng·h/mL
same,C0,[1]; [5],5250 ng/mL
same,AUC(0-t),[1]; [5],981 ng·h/mL
same,C0,[1]; [6],1380 ng/mL
same,AUC(0-t),[1]; [6],304 ng·h/mL
same,C0,[1]; [7],3210 ng/mL
same,AUC(0-t),[1]; [7],620 ng·h/mL
same,C0,[1]; [8],4850 ng/mL
same,AUC(0-t),[1]; [8],1260 ng·h/mL
same,Exposure of Compound (I) in vivo,"[1]; rats, aqueous solution of Working Example 1, 1 to 3 mL/kg",exposed in a dose-dependent manner and in a sufficient amount
same,Water solubility,[2],poor water solubility

# Reference: US9974860B2, “Aqueous solution formulation and method for manufacturing same” (Akiko ITAI, priority 2013, dated 2018)
